Assay [1] relates to isolated nonischemic and ischemic rat hearts. Conditions: cited from earlier work; for preischemic increase in coronary perfusion pressure induced by big ET-1 and its proischemic effect: phosphoramidon 100 μM, BQ-123 0.3 μM.
Assay [2] relates to ET-1-induced bronchoconstriction and tracheal smooth muscle contraction. Conditions: allergic sheep; cited from earlier work.
The subject of assay [3] is mouse model of endotoxic shock. The note with it: cited from earlier work.
Assay [4] addresses T1, endothelin converting enzyme (ECE) (Homo sapiens, UniProt P42892).
T1 construct: ECE was partially purified from EA.hy926 grown in 150 roller; endogenous in cells; host or cells: EA.hy926 (human umbilical vein endothelial cells fused with A549); detergent-solubilised membranes, RCA-I lectin eluate
The experiment in a line: ECE assay (partially purified ECE from EA.hy926, ET-1 production by RIA). The class given is biochemical. Conditions: for IC50: 10 μM big ET-1, pH 7.0, 1.5 hours at 37° C., 3% DMSO, read-out: IC50 (Table III, Biological Activity of Compounds of the Present Invention); for inhibition of the enzyme (in words): partially purified ECE from EA.hy926; for effect on ECE activity at NEP-blocking concentration: 100 μM thiorphan or 100 nM phosphoramidon.

The target in assay [5] is T1, endothelin converting enzyme (ECE). The experiment in a line: Cell-based assay (ET-1 level in medium of EA.hy926 cells by RIA). The note with it: read-out: IC50 (Table IV, cell-based assay). The protocol: A permanent human cell line (EA.hy926), derived by fusing human umbilical vein endothelial cells with the permanent human cell line A549 (derived from a human lung carcinoma), was cultured as described, except that the medium also contained HAT supplements (100 μM hypoxanthine, 0.4 μM aminopterin, 16 μM thymidine). Edgell, C.-J. S., McDonald, C. C., and Graham, J. B. (1983) Proc. Natl. Acad. Sci. USA 80, 3734-3737. Cells from passages 40 to 50 were used. Subcultures were prepared by treating confluent cells with trypsin (0.5%) and seeded either onto 24 well plates for a cell-based assay or onto roller bottles for a partial purification of the enzyme.
ET-1 was measured by radioimmunoassay (RIA) as described previously with minor modifications. Ahn, K., Beningo, K., Olds, G., and Hupe, D. (1992) Proc. Nat. Acad. Sci. USA, 89, 8606-8610. Briefly, the RIA mixture (250 μl) contained the antibody against ET-1, an ET-1 sample, and [^125 I] ET-1 (15000 cpm) in buffer D. For the analysis of ET-1 from cell based assays, the final 6% bovine serum albumin was added. […] The amount of immunoreactive (ir) ET-1 was measured by counting the supernatant and determined from the standard curve. […]
EAhy926 cells (0.2-4×10^4) were seeded into 24-plates and cultures as described above. […] The ET-1 level from these samples were measured by RIA previously described. […]

Assay [6] concerns models of acute renal ischemia and subarachnoid hemorrhage in rats. The note with it: cited from earlier work.
For assay [7], the system named is ET-1 production in cultured bovine aortic endothelial cells. The note with it: intracellular accumulation of pepstatin; cited from earlier work.
The test system of assay [8] is neutral endopeptidase 24.11 (NEP 24.11). Briefly: NEP 24.11 inhibition under ECE assay conditions. The class given is biochemical, human. The note with it: 100 μM thiorphan or 100 nM phosphoramidon. From the text: The cell line, EA.hy926, contains neutral endopeptidase 24.11 (NEP 24.11) which also cleaves big ET-1 to ET-1 and c-terminal fragment (manuscript submitted). […] All the data were obtained in the linear range of time-course curves.

Assay [9] concerns intracellular conversion of big ET-1 to ET-1. Conditions: cultured vascular endothelial cells and smooth muscle cells; cited from earlier work.
The subject of assay [10] is pressor response of big ET. Conditions: micromolar concentrations, in vitro and in vivo; cited from earlier work.
The test system of assay [11] is vasoconstrictor effects evoked by intravenous injections of big ET-1. Conditions: anaesthetized pigs; cited from earlier work.
Assay [12] concerns pressor response of big ET-1. The note with it: ganglion-blocked anesthetized rats; cited from earlier work.
Assay [13] concerns effects of big ET-1 in the microvasculature. Conditions: anesthetized hamsters; cited from earlier work.
Assay [14] deals with lethality induced by the intravenous infusion of big ET-1. Conditions: in vivo; cited from earlier work.
The test system of assay [15] is caliber of the basilar artery and systemic arterial pressure. Conditions: anesthetized dogs, intracisternal big ET-1; cited from earlier work.
Assay [16] relates to rats subjected to coronary occlusion and reperfusion. The note with it: given IV; cited from earlier work.
The subject of assay [17] is hemodynamic actions of big ET-1 in rat brain. Conditions: cited from earlier work.
Another assay deals with blood pressure. The note with it: in vivo; cited from earlier work.
Assay [18] deals with T2, endothelin converting enzyme (ECE) (Homo sapiens, UniProt P42892).
T2 construct: ECE was partially purified from EA.hy926 grown in 150 roller; endogenous in cells; host or cells: EA.hy926 (human umbilical vein endothelial cells fused with A549); detergent-solubilised membranes, RCA-I lectin eluate
T2 sequence (P42892 whole entry, looked up): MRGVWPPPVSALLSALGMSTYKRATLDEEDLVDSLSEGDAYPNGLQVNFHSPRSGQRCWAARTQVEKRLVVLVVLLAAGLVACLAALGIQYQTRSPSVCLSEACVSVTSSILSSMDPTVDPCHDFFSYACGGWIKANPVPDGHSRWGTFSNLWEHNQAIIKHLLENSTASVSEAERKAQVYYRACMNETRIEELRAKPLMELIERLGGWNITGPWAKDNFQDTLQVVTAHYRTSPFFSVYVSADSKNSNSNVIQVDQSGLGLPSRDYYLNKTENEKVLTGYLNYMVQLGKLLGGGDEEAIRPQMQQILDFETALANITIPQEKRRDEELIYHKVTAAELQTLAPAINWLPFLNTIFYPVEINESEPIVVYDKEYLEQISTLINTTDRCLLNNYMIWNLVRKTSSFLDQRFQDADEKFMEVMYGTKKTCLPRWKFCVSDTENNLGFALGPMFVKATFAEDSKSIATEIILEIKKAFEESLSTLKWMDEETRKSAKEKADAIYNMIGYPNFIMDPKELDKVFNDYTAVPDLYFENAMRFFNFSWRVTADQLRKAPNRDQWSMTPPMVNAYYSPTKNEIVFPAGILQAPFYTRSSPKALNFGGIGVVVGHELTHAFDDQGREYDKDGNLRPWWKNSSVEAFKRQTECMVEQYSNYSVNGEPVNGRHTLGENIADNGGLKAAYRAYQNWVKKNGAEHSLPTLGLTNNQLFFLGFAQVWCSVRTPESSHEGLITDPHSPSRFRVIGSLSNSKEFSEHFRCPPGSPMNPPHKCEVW
Briefly: ECE assay (partially purified ECE from EA.hy926, ET-1 production by RIA). The class given is biochemical. Conditions: partially purified ECE from EA.hy926.

Structures can show the parent of a compound that is named as a salt. Non-standard residues stand in square brackets, D forms with d. Residues, ends and D or L forms follow the SMILES beside them. No end group written: not given here. *: point of attachment. Sta = CC(C)C[C@H](N)[C@@H](O)CC(=O)O; Isovaleryl = CC(C)CC(=O)*

Consider `CC(C)C[C@@H]1NC(=O)[C@@H](C(C)C)NC(=O)[C@@H]2CCCN2C(=O)[C@@H](CC(=O)O)NC(=O)[C@@H](Cc2c[nH]c3ccccc23)NC1=O` [BQ-123] (cyclo(L[dW][dD]P[dV])), for which the “preischemic increase in coronary perfusion pressure induced by big ET-1 and its proischemic effect” value in [1] is on record as “abolished”. Also, the “ET-1-induced bronchoconstriction and tracheal smooth muscle contraction” value in [2] is “block ET-1-induced bronchoconstriction and tracheal smooth muscle contraction”. Also, the survival rate entry in assay [3] is given as “significantly increased the survival rate”.

Turning to `CCN1CCCC(Nc2nc(C(Cl)(Cl)Cl)nc3ccc(I)cc23)C1` (stereo not drawn) [Example 1, (1-Ethyl-piperidin-3-yl)-(6-iodo-2-trichloromethyl-quinazolin-4-yl)-amine, Monohydrochloride], the IC50 in [4] worked out at 4.2 ± 0.5 µM; in assay [5], 6.6 ± 1.5 µM.

As to `CCN1CCCC(Nc2nc(C(Cl)(Cl)Cl)nc3ccc(Cl)cc23)C1` (stereo not drawn) [Example 3, (1-Ethyl-piperidin-3-yl)-(6-chloro-2-trichloromethyl-quinazolin-4-yl)-amine], the IC50 in [4] is 14.1 ± 1.5 µM; in assay [5], 14.4 ± 1.1 µM.

For `COc1cccc(Oc2c(NS(=O)(=O)c3ccc(C(C)(C)C)cc3)ncnc2OCCO)c1` [RO 46-2005], the “efficacy in models of acute renal ischemia and subarachnoid hemorrhage” value in [6] is on record as “effective”.

Turning to `C[C@H](N[C@@H](CCc1ccccc1)C(=O)O)C(=O)N1CCC[C@H]1C(=O)O` [enalaprilat], the “inhibition of the enzyme (in words)” value in assay [4] was “not inhibited”.

For `CC(=O)N[C@@H](CC(C)C)C(=O)N[C@@H](CC(C)C)C(=O)N[C@H](C=O)CCCNC(=N)N` [leupeptin], the “inhibition of the enzyme (in words)” value in assay [4] is listed as “not inhibited”.

As to `CC(C)CC(=O)N[C@H](C(=O)N[C@H](C(=O)N[C@@H](CC(C)C)[C@@H](O)CC(=O)N[C@@H](C)C(=O)N[C@@H](CC(C)C)[C@@H](O)CC(=O)O)C(C)C)C(C)C` [pepstatin A] (Isovaleryl-VV[Sta]A[Sta]-OH), in assay [4], the “inhibition of the enzyme (in words)” value is given as “not inhibited”.

Regarding `CC(C)CC(=O)N[C@H](C(=O)N[C@H](C(=O)N[C@@H](CC(C)C)[C@@H](O)CC(=O)N[C@@H](C)C(=O)N[C@@H](CC(C)C)[C@@H](O)CC(=O)O)C(C)C)C(C)C` [pepstatin] (Isovaleryl-VV[Sta]A[Sta]-OH), the “inhibition of ET-1 production” value in [7] is “did not inhibit ET-1 production”.

For the molecule `O=S(=O)(F)Cc1ccccc1` [phenylmethlysulfonyl fluoride], the “inhibition of the enzyme (in words)” value in [4] is “not inhibited”.

Regarding `CC(C)C[C@H](NP(=O)(O)O[C@@H]1O[C@@H](C)[C@H](O)[C@@H](O)[C@H]1O)C(=O)N[C@@H](Cc1c[nH]c2ccccc12)C(=O)O` [phosphoramidon], the “effect on ECE activity at NEP-blocking concentration” value in assay [4] is recorded as “without affecting the ECE activity”. The “NEP 24.11 inhibition” value in [8] is reported as “completely inhibited”. Further, in assay [9], the “inhibition of intracellular conversion of big ET-1 to ET-1” value is given as “inhibit the intracellular conversion of big ET-1 to ET-1”. Moreover, the “block of pressor response of big ET” value in [10] is recorded as “block the pressor response of big ET”. In [11], the “effect on plasma ET-1 level” value is given as “did not have any effect on the plasma ET-1 level” and the “vasoconstrictor effects evoked by i.v. big ET-1” value was “inhibit vasoconstrictor effects”. Also, the “block of pressor response of big ET-1” value in [12] is “blocked by phosphoramidon in a dose-dependent manner”. Moreover, the “effects of big ET-1 in the microvasculature” value in assay [13] is reported as “inhibit the effects of big ET-1”. Also, in [14], the “lethality induced by the intravenous infusion of big ET-1” value is listed as “suppress the lethality”. The “block of big ET-1 effects on basilar artery caliber and systemic arterial pressure” value in assay [15] is “These effects were blocked by phosphoramidon”. Also, the “preischemic increase in coronary perfusion pressure induced by big ET-1 and its proischemic effect” value in assay [1] is reported as “abolished”. Moreover, the “infarct size 24 hour postischemia” value in [16] is given as “significantly reduce infarct size”. For the same molecule, the “inhibition of hemodynamic actions of big ET-1” value in [17] is recorded as “phosphoramidon sensitive inhibition of hemodynamic actions of big ET-1”.

Turning to `O=C(O)CNC(=O)C(CS)Cc1ccccc1` (stereo not drawn) [thiorphan], in assay [4], the “effect on ECE activity at NEP-blocking concentration” value is “without affecting the ECE activity” and the “inhibition of the enzyme (in words)” value is listed as “not inhibited”. Further, the “NEP 24.11 inhibition” value in assay [8] is on record as “completely inhibited”.

As to “big ET-1: 38 (human) or 39 (porcine) amino acid peptide known as big endothelin or proendothelin (CSCSSLMDKECVYFCHLDIIWVNTPEHVVPYGLGSPRS; ends and bridges not checked; cysteine pairing not given here; UniProt P05305 53-90, looked up)”, the IC50 in assay [1] (isolated rat hearts, read-out: IC50, reduction of coronary flow) is 0.002 µM. The “time to contracture in globally ischemic rat hearts” value in [1] (pretreatment / 10 nMol big ET-1) is reported as “significantly reduced the time to contracture”. The “potency at raising blood pressure relative to ET-1” value in the assay with blood pressure is given as “equally potent in vivo”.

B1: soybean trypsin inhibitor: soybean trypsin inhibitor (protein, UniProt P01070 25-205, looked up)
Trypsin inhibitor A: DFVLDNEGNPLENGGTYYILSDITAFGGIRAAPTGNERCPLTVVQSRNELDKGIGTIISSPYRIRFIAEGHPLSLKFDSFAVIMLCVGIPTEWSVVEDLPEGPAVKIGENKDAMDGWFRLERVSDDEFNNYKLVFCPQQAEDDKCGDIGISIDHDDGTRRLVVSKNKPLVVQFQKLDKESL
On to B1, for which the “inhibition of the enzyme (in words)” value in assay [18] is “not inhibited”.

The term IC50 denotes the point on the concentration scale where inhibition reaches its midpoint.
